Source: patent US9580390B2, “Indazole compounds as kinase inhibitors and method of treating cancer with same” (University Health Network, priority 2011, dated 2017)
Like-named read-outs stand apart in the source and are kept apart here.

Experiments:
[1] = target: T1, human PLK4 (Homo sapiens, UniProt O00444); assay: PLK4 inhibition assay (indirect ELISA); type: biochemical; details: 15 μM ATP
T1 construct: amino terminal GST fusion of residues 1-391 of human PLK4; made in house; host or cells: E. coli
T1 sequence (O00444 1-391): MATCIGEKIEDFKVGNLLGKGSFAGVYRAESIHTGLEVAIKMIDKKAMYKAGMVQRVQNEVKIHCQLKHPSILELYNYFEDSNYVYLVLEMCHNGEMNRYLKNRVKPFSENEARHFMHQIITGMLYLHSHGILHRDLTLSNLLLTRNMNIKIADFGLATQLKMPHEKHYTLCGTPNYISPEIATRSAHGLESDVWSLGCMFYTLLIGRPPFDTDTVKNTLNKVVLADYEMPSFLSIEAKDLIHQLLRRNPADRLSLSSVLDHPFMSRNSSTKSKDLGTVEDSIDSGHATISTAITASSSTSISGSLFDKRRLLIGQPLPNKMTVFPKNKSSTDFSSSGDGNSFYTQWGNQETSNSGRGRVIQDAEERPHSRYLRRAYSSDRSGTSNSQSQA
How it was run: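 Dephosphorylated GST-PLK4 (residues 1-391, E. coli; 4 nM) was preincubated 15 min with compound, then reacted 30 min with 15 μM ATP in HEPES pH 7.4, MgCl2, Brij 35 on MBP-coated plates. Phospho-MBP was detected by antibody/HRP ELISA at 450 nm; IC50 from 10-point titration by 4-parameter logistic fit, or single 10 μM % inhibition.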

[2] = system: TICs (Ovarian 2393A); assay: Ovarian tumor-initiating cell growth inhibition (Alamar Blue); type: cell-based; details: 144 h; ovarian TICs, 6 days, Alamar Blue; read-out: Tumor Initiating Cell GI50 Range Ovarain 2393A
[3] = system: TICs (Colon 12); assay: Colon tumor-initiating cell growth inhibition (Alamar Blue); type: cell-based; details: 216 h, 9 days, read-out: Tumor Initiating Cell GI50 Range Colon 12
[4] = system: colon cancer cells (HCT116); assay: Cancer cell line growth inhibition (SRB assay); type: cell-based; details: Homo sapiens, HCT-116, read-out: Cancer Cell Line GI50 Range HCT116
[5] = system: ovarian cancer cells (PA-1); assay: Cancer cell line growth inhibition (SRB assay); type: cell-based; details: read-out: Cancer Cell Line GI50 Range PA-1
[6] = system: Breast cancer cells; assay: Cancer cell line growth inhibition (SRB assay); type: cell-based; details: Homo sapiens; MDA-MB-468; read-out: Cancer Cell Line GI50 Range MDA-MB-468
[7] = target: T2, human TTK (Homo sapiens, UniProt P33981); assay: TTK inhibition assay (indirect ELISA); type: biochemical; details: read-out: TTK IC50 Range
T2 construct: amino terminal GST fusion of full length human TTK; purchased Invitrogen
T2 sequence (P33981 1-857): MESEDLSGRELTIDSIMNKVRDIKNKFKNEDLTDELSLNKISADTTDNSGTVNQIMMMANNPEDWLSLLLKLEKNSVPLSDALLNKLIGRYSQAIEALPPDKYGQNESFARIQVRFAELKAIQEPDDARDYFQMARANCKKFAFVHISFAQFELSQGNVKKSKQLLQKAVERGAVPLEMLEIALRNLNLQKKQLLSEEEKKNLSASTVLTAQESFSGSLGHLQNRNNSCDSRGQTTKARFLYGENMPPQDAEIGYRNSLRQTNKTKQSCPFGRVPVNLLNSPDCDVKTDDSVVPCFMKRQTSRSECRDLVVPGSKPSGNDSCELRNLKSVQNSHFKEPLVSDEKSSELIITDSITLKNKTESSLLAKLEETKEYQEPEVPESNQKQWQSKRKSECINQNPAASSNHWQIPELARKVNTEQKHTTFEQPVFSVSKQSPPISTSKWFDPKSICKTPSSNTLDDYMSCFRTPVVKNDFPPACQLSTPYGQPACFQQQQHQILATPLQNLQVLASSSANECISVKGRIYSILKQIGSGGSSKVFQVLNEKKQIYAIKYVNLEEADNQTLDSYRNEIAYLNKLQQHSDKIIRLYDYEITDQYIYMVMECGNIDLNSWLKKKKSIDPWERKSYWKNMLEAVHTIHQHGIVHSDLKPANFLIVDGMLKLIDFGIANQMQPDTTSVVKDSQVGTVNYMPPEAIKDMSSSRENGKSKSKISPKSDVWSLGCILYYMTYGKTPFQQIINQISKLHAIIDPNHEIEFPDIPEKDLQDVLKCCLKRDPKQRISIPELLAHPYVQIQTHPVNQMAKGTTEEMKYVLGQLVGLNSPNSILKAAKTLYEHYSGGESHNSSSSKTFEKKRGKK

[8] = HCT116 colon cancer cells, SRB assay
[9] = PA-1 ovarian cancer cells, SRB assay

SMILES	IC50 [1] [nM]	GI50 [2] [nM]	GI50 ([3]; colon TICs, Alamar Blue) [nM]	GI50 [4, 8] [nM]	GI50 [5, 9] [nM]	GI50 [6] [nM]	IC50 [7] [nM]	GI50 ([5]; Homo sapiens, PA-1) [nM]	GI50 [4] [nM]	GI50 ([3]; Colon 12 TICs) [nM]
O=C(Nc1ccc2[nH]nc(-c3ccc(OC4CCOCC4)cc3)c2c1)C(c1ccsc1)N1CCCC1 (stereo not drawn) [Example A29, 2-(pyrrolidin-1-yl)-N-(3-(4-((tetrahydro-2H-pyran-4-yl)oxy)phenyl)-1H-indazol-5-yl)-2-(thiophen-3-yl)acetamide]	< 50	100 to 500	< 100	< 100						
CN1CCC(Oc2ccc(-c3n[nH]c4ccc(C(=O)NC(c5ccsc5)C5CCCC5)cc34)cc2)CC1 (stereo not drawn) [Example A110, N-(cyclopentyl(thiophen-3-yl)methyl)-3-(4-((1-methylpiperidin-4-yl)oxy)phenyl)-1H-indazol-5-carboxamide]	< 50	100 to 500	< 100	< 100	< 100					
O=CN1CCC(Oc2ccc(-c3n[nH]c4ccc(NC(=O)C(c5ccsc5)N5CCCC5)cc34)cc2)CC1 (stereo not drawn) [Example A118, N-(3-(4-((1-formylpiperidin-4-yl)oxy)phenyl)-1H-indazol-5-yl)-2-(pyrrolidin-1-yl)-2-(thiophen-3-yl)acetamide]	< 50	< 100	100 to 500	< 100	< 100					
CC[C@@H](NC(=O)c1ccc2[nH]nc(-c3ccc(OC4CCN(CCOC)CC4)cc3)c2c1)c1ccccc1Cl [Example A128, (R)-N-(1-(2-chlorophenyl)propyl)-3-(4-((1-(2-methoxyethyl)piperidin-4-yl)oxy)phenyl)-1H-indazole-5-carboxamide]	< 50	100 to 500	< 100	< 100	100 to 500					
CC(C)C[C@H](NC(=O)c1ccc2[nH]nc(-c3ccc(N4C5COCC4CC(O)C5)cc3)c2c1)c1ccccc1Cl (stereo partly drawn) [Example A424, N-((S)-1-(2-chlorophenyl)-3-methylbutyl)-3-(4-((1R,5S,7R)-7-hydroxy-3-oxa-9-azabicyclo[3.3.1]nonan-9-yl)phenyl)-1H-indazole-5-carboxamide]	< 50					< 100	< 100	< 100	< 100	
CN1[C@@H]2CC[C@H]1C[C@@H](Oc1ccc(-c3n[nH]c4ccc(C(=O)NCC5(c6cccs6)CCOCC5)cc34)cc1)C2 [Example A445, 3-(4-(((1R,3R,5S)-8-methyl-8-azabicyclo[3.2.1]octan-3-yl)oxy)phenyl)-N-((4-(thiophen-2-yl)tetrahydro-2H-pyran-4-yl)methyl)-1H-indazole-5-carboxamide]	< 50					100 to 500	< 100	< 100	< 100	
O=C(NCC1(c2ccccc2)COC1)c1ccc2[nH]nc(-c3ccc(OC4CCN(C5COC5)CC4)cc3)c2c1 [Example A487, 3-(4-((1-(oxetan-3-yl)piperidin-4-yl)oxy)phenyl)-N-((3-phenyloxetan-3-yl)methyl)-1H-indazole-5-carboxamide]	< 50					> 500	< 100	> 500	> 500	
O=C(NCC1(c2ccccc2)CCOCC1)c1ccc2[nH]nc(-c3ccc(N4[C@@H]5CC[C@H]4C[C@@H](O)C5)cc3)c2c1 [Example A492, 3-(4-((1R,3R,5S)-3-hydroxy-8-azabicyclo[3.2.1]octan-8-yI)phenyl)-N-((4-phenyltetrahydro-2H-pyran-4-yl)methyl)-1H-indazole-5-carboxamide]	< 50					< 100	< 100	< 100	< 100	< 100
O=C(NCC1(c2ccccc2)CCOCC1)c1ccc2[nH]nc(-c3ccc(N4[C@@H]5COC[C@H]4C[C@@H](O)C5)cc3)c2c1 [Example A503, 3-(4-((1R,5S,7S)-7-hydroxy-3-oxa-9-azabicyclo[3.3.1]nonan-9-yl)phenyl)-N-((4-phenyltetrahydro-2H-pyran-4-yl)methyl)-1H-indazole-5-carboxamide]	< 50					100 to 500	< 100	< 100	< 100	
